Assay results: patent US20250115628A1, “FLUORINATED FLUOROPHORES” (HOWARD HUGHES MEDICAL INSTITUTE, priority 2023, published 2025)

Experiments:
HaloTag® protein = molecular target: T1, HaloTag® protein (Rhodococcus rhodochrous, UniProt P0A3G2, A155T/A167V/A172T/A224E/C128F/C176G/D78G/E160K/E257K/H272N/K175M/K195N/L47V/L88M/N227D/P291S/S2A/S58T/T264A/Y273L/Y87F); assay: Absorption increase of ligands on binding HaloTag® protein; format: biochemical
T1 construct: 6xHis; made in house; host or cells: bacterial expression (pRSET-A vector, Invitrogen)
T1 sequence (P0A3G2 other isoform, or with tags, fused parts or gaps with the stated changes): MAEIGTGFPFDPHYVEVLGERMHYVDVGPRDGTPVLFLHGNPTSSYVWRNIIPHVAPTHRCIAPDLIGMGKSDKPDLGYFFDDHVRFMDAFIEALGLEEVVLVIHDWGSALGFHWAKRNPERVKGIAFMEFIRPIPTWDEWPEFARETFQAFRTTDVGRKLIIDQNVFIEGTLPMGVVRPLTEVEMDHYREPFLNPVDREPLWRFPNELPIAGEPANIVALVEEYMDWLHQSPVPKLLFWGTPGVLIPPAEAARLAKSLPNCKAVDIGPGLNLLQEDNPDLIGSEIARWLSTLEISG
Procedure: The bacterial expression vector pRSET-A (Invitrogen) was used to recombinantly express HaloTag® (HT7; Promega).^7 The soluble 6×His-Tagged HaloTag® protein was affinity purified by immobilized metal affinity chromatography (IMAC) on a 5^−mL Fast Flow HiTrap Sepharose 6 column (Cytiva) with a 0-200 mM imidazole elution gradient using an ÄKTA Avant Protein Purification System (Cytiva).
HaloTag® protein was used as a […] solution in 1× TBS. Absorption measurements were performed in 1.4^−mL semi-micro quartz cuvettes. A […] solution of HaloTag® ligand 65HTL or 91HTL was prepared in 10 mM HEPES, pH 7.3 containing 0.1 mg mL-1 CHAPS. An aliquot of HaloTag® protein (2 equiv, […] [HaloTag®]) was added. To examine chromogenicty (FIG. 5B, left panel), the resulting mixture was incubated until a consistent absorption signal/spectrum was observed (<60 min for 65HTL); an equivalent volume of 1× TBS blank was added to separate “−HT” samples in place of enzyme to record the ligand-only absorption. Spectra are averages (n=2). To compare rates of HaloTag® labeling (FIG. 5B, right panel) absorption at λabs (645 nm for 65HTL, 621 nm for 91HTL) was recorded at regular intervals (0.1 min, 0-5 min; 1 min, 5-120 min; 5 min, 2-24 h) immediately following addition of HaloTag® protein.

[1] = tested on: U2OS cells stably expressing HaloTag®-histone H2B fusion protein; assay: Loading experiments using ligands 65HTL and 91HTL (JF552-HaloTag® ligand chase); format: cell-based; conditions: 200 nM, 0-4 h
Procedure: U2OS cells (ATCC) and U2OS cells stably expressing an integrated HaloTag®-histone H2B fusion protein (U2OS·H2B·HaloTag®) were cultured in Dulbecco's modified Eagle medium (DMEM, phenol red-free; Life Technologies) supplemented with 10% (v/v) fetal bovine serum (FBS, Life Technologies), 1 mM GlutaMAX (Life Technologies) and maintained at 37° C. in a humidified 5% (v/v) CO2 environment. These cell lines undergo regular mycoplasma testing by the Janelia Cell Culture Facility. For mitochondrial imaging using the HaloTag® system, U2OS cells were transiently transfected using nucleofection (Lonza) with a plasmid constitutively expressing a HaloTag®-TOMM20 fusion protein, which is located on the outer mitochondrial membrane. […]
For loading curve experiments, U2OS·H2B·HaloTag® stable cells were incubated with 200 nM 65HTL and 91HTL for 0-4 h at 37° C., washed 3× with dye-free media then chased with 200 nM JF552-HaloTag® ligand 15 for 30 min at 37° C., washed 3× with dye-free media and fixed with 4% paraformaldehyde in 0.1 M phosphate buffer, pH 7.4 for 15 min at 37° C. […] Fluorescence was quantified as the integrated density of nuclear signals from confocal image stack projections analyzed in FIJI;^82 n=100 nuclear signals per compound.

[2] = tested on: ScAMPI (SNAP-tag®-Epac1-HaloTag®) expressed in U2OS cells; assay: cAMP FLIM-FRET sensor ScAMPI (fluorescence lifetime imaging); format: cell-based
Description: The Epac-based cAMP sensor “Epac-S^H189”, was obtained from Addgene (Plasmid #170348). This sensor consists of a mTurquoise fluorescent protein and a tdDark Venus protein linked via the Epac1 protein.
To construct the SNAP-tag®-Epac1-HaloTag® sensor, the sequence encoding the tdDark Venus domain in Epac-S^H189 was first replaced with the HaloTag® sequence using Nhe1 and Asc1 fragment ligation (NEB), creating a construct with mTurquoise and HaloTag® flanking the Epac1 domain (i.e, mTurquoise-Epac1-HaloTag®). […]
To evaluate this semisynthetic system in cells, U2OS cells (ATCC) were maintained in DMEM (Corning) containing 10% v/v FBS (ATCC), 1% v/v L-glutamine (Gibco) and 1% v/v Pen/Strep (Gibco). […] Fluorescence lifetime imaging was performed with a Leica SP8 Falcon using LASX software for image acquisition and analysis. […] Fluorescence emission was collected by the HyD detector. […] Mean amplitude weighted lifetime image (τmean) was calculated by fixing the two lifetimes and performing an image fit for their respective amplitudes (a1 and a2). FRET efficiency was calculated using the mean lifetime obtained in absence (τmean,-forskolin) and (τmean,+forskolin) presence of forskolin as 1^−(τmean,-forskolin/τmean,+forskolin).

C=C/C=C(C=C)/[N+](C)=C1\C=CC2=C(c3c(F)c(C(=O)NCCOCCOCCCCCCCl)c(F)c(F)c3C(=O)[O-])c3ccc(N(C)c4ccccc4)cc3C(C)(C)C2=C1 [65HTL, JQ645-HaloTag® ligand]
HaloTag® labeling in vitro compared with 91HTL (HaloTag® protein; absorbance vs. time upon addition to HaloTag® protein): substantially faster
ε of HaloTag® conjugate (HaloTag® protein; after incubation with HaloTag® protein): 110,000 M^−1 cm^−1
λabs used for HaloTag® labeling read-out (HaloTag® protein; ligand in 10 mM HEPES, pH 7.3 with CHAPS, HaloTag® protein added): 645 nm
increase in absorptivity on incubation with HaloTag® protein (HaloTag® protein; ligand with 2 equiv HaloTag® protein, 10 mM HEPES, pH 7.3): 47 fold
HaloTag® labeling in cells compared with 91HTL [1]: substantially faster
FRET quenching of the JFX612 donor [2]: effective FRET quencher
